In patent US8680052B1, “Methods of treating, reducing the incidence of, and/or preventing ischemic events” (The Medicines Company, priority 2013, dated 2014):
Read-outs that look alike come from different tables or passages of the source.

Test system: patients with acute coronary syndromes undergoing PCI
[1] = 48 hours, MITT With STEMI, Cangrelor vs Clopidogrel
[2] = 48 hours, MITT Without STEMI, Cangrelor vs Clopidogrel
[3] = 48 hours, MITT, Cangrelor vs Clopidogrel

Protocol: Patients were eligible for enrollment if they had stable angina, unstable angina, or non-ST-segment elevation (NSTE) MI with obstructive coronary artery disease and were scheduled to undergo PCI.
The infusion began within 30 minutes prior to PCI and continued for at least 2 hours or until the conclusion of the index procedure, whichever was longer. At the treating physician's discretion, the infusion could be continued for 4 hours.
All patients received aspirin 75-325 mg per local site standards. Adjunctive anticoagulants (unfractionated heparin, low molecular weight heparin, bivalirudin, or fondaparinux) and the procedural use of glycoprotein IIb/IIIa inhibitors were determined by the treating physician.
The primary efficacy endpoint was the 48-hour composite of all-cause mortality, MI, or ischemia-driven revascularization. Prespecified secondary efficacy endpoints included the composite of mortality or MI at 48 hours and 30 days; the composite of mortality, MI, or ischemia-driven revascularization at 30 days; the components of the composite endpoints at 48 hours and 30 days; stroke at 48 hours; abrupt closure, threatened abrupt closure, need for urgent coronary artery bypass grafting, or unsuccessful procedure during the index PCI; acute (24 hours) and 48 hours stent thrombosis; and all-cause mortality at 6 months and 1 year.
Rates of MI and ischemia-driven revascularization up to 30 days following the index procedure were assessed. Ischemia-driven revascularization was defined as symptoms of myocardial ischemia leading to urgent (within 24 hours of the last episode of ischemia) revascularization, which must have occurred after the index procedure concluded (i.e., guidewire removal). New electrocardiographic changes, acute pulmonary edema, ventricular arrhythmias, or hemodynamic instability could also constitute evidence of ischemia.
MI was defined by a new Q wave (duration >0.03 seconds) in two contiguous electrocardiographic leads or elevations in creatine kinase (CK) and CK-MB, including a rise of CK-MB≧3 times the local upper limit or normal and, when biomarkers were elevated prior to PCI, an additional 50% above baseline. One baseline troponin measurement was required for patients undergoing urgent PCI. Measurements of CK-MB were obtained at 2, 10, 17, and 24 hours post-PCI.
The primary efficacy analysis was to be determined in the modified intent-to-treat (mITT) population, defined as all randomized patients (excluding STEMI cohort) who received at least one dose of study drug and underwent the index PCI. The safety population consisted of all randomized patients who received any study drug. Patients in the safety analyses were assigned to a treatment arm based on treatment received, not as randomized.

SMILES: CSCCNc1nc(SCCC(F)(F)F)nc2c1ncn2[C@@H]1O[C@H](COP(=O)(O)OP(=O)(O)C(Cl)(Cl)P(=O)(O)O)[C@@H](O)[C@H]1O [Cangrelor, cangrelor]
- All-cause mortality (48 hours, MITT): 9 (0.2) no. (%)
- IDR (48 hours, MITT): 19 (0.4) no. (%)
- MI (48 hours, MITT): 292 (6.7) no. (%)
- Mortality/MI/IDR (48 hours, MITT): 308 (7.1) no. (%)
- Mortality/Q-wave MI/IDR (48 hours, MITT): 30 (0.7) no. (%)
- Mortality/Q-wave MI/Stent thrombosis (48 hours, MITT): 23 (0.5) no. (%)
- Q-wave MI (48 hours, MITT): 4 (0.1) no. (%)
- Stent thrombosis (48 hours, MITT): 11 (0.3) no. (%)
- Stroke (48 hours, MITT): 6 (0.1) no. (%)
- All-cause mortality (48 hours, MITT With STEMI): 1 (0.2) no. (%)
- IDR (48 hours, MITT With STEMI): 6 (1.3) no. (%)
- MI (48 hours, MITT With STEMI): 14 (3.1) no. (%)
- Mortality/MI/IDR (48 hours, MITT With STEMI): 18 (4.0) no. (%)
- Mortality/Q-wave MI/IDR (48 hours, MITT With STEMI): 7 (1.6) no. (%)
- Mortality/Q-wave MI/Stent thrombosis (48 hours, MITT With STEMI): 5 (1.1) no. (%)
- Q-wave MI (48 hours, MITT With STEMI): 0 (0.0) no. (%)
- Stent thrombosis (48 hours, MITT With STEMI): 4 (0.9) no. (%)
- Stroke (48 hours, MITT With STEMI): 0 (0.0) no. (%)
- All-cause mortality OR (95% CI) [1]: 0.249 (0.028, 2.235)
- IDR OR (95% CI) [1]: 0.857 (0.286, 2.571)
- MI OR (95% CI) [1]: 1.778 (0.739, 4.282)
- Mortality/MI/IDR OR (95% CI) [1]: 1.064 (0.541, 2.092)
- Mortality/Q-wave MI/IDR OR (95% CI) [1]: 0.632 (0.243, 1.645)
- Mortality/Q-wave MI/Stent thrombosis OR (95% CI) [1]: 0.622 (0.202, 1.917)
- Stent thrombosis OR (95% CI) [1]: 1.002 (0.249, 4.033)
- All-cause mortality (48 hours, MITT Without STEMI): 8 (0.2) no. (%)
- IDR (48 hours, MITT Without STEMI): 13 (0.3) no. (%)
- MI (48 hours, MITT Without STEMI): 278 (7.1) no. (%)
- Mortality/MI/IDR (Prespecified primary endpoint) (48 hours, MITT Without STEMI): 290 (7.5) no. (%)
- Mortality/Q-wave MI/IDR (48 hours, MITT Without STEMI): 23 (0.6) no. (%)
- Mortality/Q-wave MI/Stent thrombosis (48 hours, MITT Without STEMI): 18 (0.5) no. (%)
- Q-wave MI (48 hours, MITT Without STEMI): 4 (0.1) no. (%)
- Stent thrombosis (48 hours, MITT Without STEMI): 7 (0.2) no. (%)
- Stroke (48 hours, MITT Without STEMI): 6 (0.2) no. (%)
- primary composite of all-cause mortality, MI, or ischemia-driven revascularization (48 hours, MITT Without STEMI): 7.5%
- All-cause mortality OR (95% CI) [2]: 1.591 (0.520, 4.869)
- IDR OR (95% CI) [2]: 0.560 (0.283, 1.108)
- MI OR (95% CI) [2]: 1.085 (0.910, 1.294)
- Mortality/MI/IDR (Prespecified primary endpoint) OR (95% CI) [2]: 1.048 (0.883, 1.243)
- Mortality/Q-wave MI/IDR OR (95% CI) [2]: 0.670 (0.394, 1.140)
- Mortality/Q-wave MI/Stent thrombosis OR (95% CI) [2]: 0.777 (0.419, 1.442)
- Q-wave MI OR (95% CI) [2]: 0.397 (0.124, 1.267)
- Stent thrombosis OR (95% CI) [2]: 0.632 (0.245, 1.631)
- Stroke OR (95% CI) [2]: 0.852 (0.286, 2.536)
- All-cause mortality OR (95% CI) [3]: 0.995 (0.394, 2.508)
- IDR OR (95% CI) [3]: 0.628 (0.353, 1.118)
- MI OR (95% CI) [3]: 1.107 (0.932, 1.315)
- Mortality/MI/IDR OR (95% CI) [3]: 1.049 (0.889, 1.238)
- Mortality/Q-wave MI/IDR OR (95% CI) [3]: 0.661 (0.416, 1.051)
- Mortality/Q-wave MI/Stent thrombosis OR (95% CI) [3]: 0.737 (0.429, 1.265)
- Q-wave MI OR (95% CI) [3]: 0.397 (0.125, 1.268)
- Stent thrombosis OR (95% CI) [3]: 0.729 (0.334, 1.588)
- Stroke OR (95% CI) [3]: 0.852 (0.286, 2.538)
- All-cause mortality (48 hours, Safety population): 9 (0.2) no. (%)
- IDR (48 hours, Safety population): 19 (0.4) no. (%)
- MI (48 hours, Safety population): 294 (6.7) no. (%)
- Mortality/MI/IDR (48 hours, Safety population): 310 (7.1) no. (%)
- Mortality/Q-wave MI/IDR (48 hours, Safety population): 30 (0.7) no. (%)
- Mortality/Q-wave MI/Stent thrombosis (48 hours, Safety population): 23 (0.5) no. (%)
- Q-wave MI (48 hours, Safety population): 4 (0.1) no. (%)
- Stent thrombosis (48 hours, Safety population): 11 (0.3) no. (%)
- Stroke (48 hours, Safety population): 6 (0.1) no. (%)
- All-cause mortality (30 days, ITT): 40 (0.9) no. (%)
- IDR (30 days, ITT): 62 (1.4) no. (%)
- MI (30 days, ITT): 318 (7.3) no. (%)
- Mortality/MI/IDR (30 days, ITT): 381 (8.7) no. (%)
- Mortality/Q-wave MI/IDR (30 days, ITT): 102 (2.3) no. (%)
- Mortality/Q-wave MI/Stent thrombosis (30 days, ITT): 68 (1.6) no. (%)
- Q-wave MI (30 days, ITT): 9 (0.2) no. (%)
